Test results as given in patent US20070128217A1 (priority 2003, published 2007).

What was measured:
[1] = tested on: antibodies in sera from SARS patients (sera 1a, 1b, 2, 6, 37, 62, London, SARS-yellow, SARS-green); type: binding, human; design: Binding of serum 6 to linear peptides of protein X1 of SARS-CoV Urbani / Binding of serum 37 to linear peptides of protein X1 of SARS-CoV Urbani / Binding of serum 6 to looped/cyclic peptide (PEPSCAN-ELISA) / Binding of serum 37 to looped/cyclic peptide (PEPSCAN-ELISA) / Binding of serum 37 to looped/cyclic peptides of protein X1 of SARS-CoV Urbani / Binding of serum 6 to linear peptides of protein X2 / Binding of serum 37 to linear peptides of protein X2 / Binding of serum 37 to looped/cyclic peptides of protein X2 of SARS-CoV Urbani / Binding of serum 6 to linear peptides of protein M of SARS-CoV Urbani / Binding of serum 37 to linear peptides of protein M of SARS-CoV Urbani / Binding of serum 6 to looped/cyclic peptides of protein M of SARS-CoV Urbani / Binding of serum 37 to looped/cyclic peptides of protein M of SARS-CoV Urbani / Binding of serum 6 to linear peptides of protein X3 of SARS-CoV Urbani / Binding of serum 37 to linear peptides of protein X3 of SARS-CoV Urbani / Binding of serum 37 to looped/cyclic peptides of protein X3 of SARS-CoV Urbani / Binding of serum 6 to linear peptides of protein X4 of SARS-CoV Urbani / Binding of serum 37 to linear peptides of protein X4 of SARS-CoV Urbani / Binding of serum 37 to looped/cyclic peptides of protein X4 of SARS-CoV Urbani / Binding of serum 6 to linear peptides of protein X5 of SARS-CoV Urbani / Binding of serum 37 to linear peptides of protein X5 of SARS-CoV Urbani / Binding of serum 37 to looped/cyclic peptides of protein X5 of SARS-CoV Urbani / Binding of serum 6 to linear peptides of protein N of SARS-CoV Urbani / Binding of serum 37 to linear peptides of protein N of SARS-CoV Urbani / Binding of serum 6 to linear peptide (PEPSCAN-ELISA) / Binding of serum 1a to looped/cyclic peptides of protein N of SARS-CoV Urbani / Binding of serum 1b to looped/cyclic peptides of protein N of SARS-CoV Urbani / Binding of serum 2 to looped/cyclic peptides of protein N of SARS-CoV Urbani / Binding of serum 6 to looped/cyclic peptides of protein N of SARS-CoV Urbani / Binding of serum 37 to looped/cyclic peptides of protein N of SARS-CoV Urbani / Binding of serum 62 to looped/cyclic peptides of protein N of SARS-CoV Urbani / Binding of serum London to looped/cyclic peptides of protein N of SARS-CoV Urbani / Binding of serum SARS-green to looped/cyclic peptides of protein N of SARS-CoV Urbani: unit not given here
[2] = tested on: control sera (pooled serum of ten healthy LUMC hospital workers; commercial negative donor pooled serum from the Dutch bloodbank); type: binding, human; design: Binding of Control serum LUMC to linear peptides / Binding of Control serum Blood-bank to linear peptides / Binding of Control serum LUMC to looped peptides / Binding of Control Serum Blood-Bank to Looped peptides / Binding of Control serum LUMC to linear peptides of the protein M of SARS-CoV Urbani / Binding of Control serum Blood-bank to linear peptides of the protein M of SARS-CoV Urbani / Binding of Control serum LUMC to looped peptides of the protein M of SARS-CoV Urbani / Binding of Control Serum Blood-Bank to Looped peptides of the protein M of SARS-CoV Urbani: unit not given here
[3] = tested on: rabbit serum obtained by immunizing a rabbit with the SARS-CoV strain Frankfurt 1; type: binding; design: Binding of a rabbit serum to linear peptides / Binding of a rabbit serum to looped peptides / Rabbit serum linear peptides / Rabbit serum looped peptides / Binding of a rabbit serum to linear peptides of protein N of SARS-CoV Urbani (Rabbit serum linear peptides) / Binding of a rabbit serum to looped/cyclic peptides of protein N of SARS-CoV Urbani (Rabbit serum looped peptides): unit not given here

## FAAYNRYRIGNYKLN
[1]
  Binding of serum 1a to linear peptides of protein M of SARS-CoV Urbani: 0.6
  Binding of serum 1a to looped/cyclic peptides of protein M of SARS-CoV Urbani: 0.8
  Binding of serum 1b to linear peptides of protein M of SARS-CoV Urbani: 0.3
  Binding of serum 1b to looped/cyclic peptides of protein M of SARS-CoV Urbani: 0.4
  Binding of serum 2 to linear peptides of protein M of SARS-CoV Urbani: 0.5
  Binding of serum 2 to looped/cyclic peptides of protein M of SARS-CoV Urbani: 0.7
  Binding of serum 6 to linear peptides of protein M of SARS-CoV Urbani: 0.4
  Binding of serum 6 to looped/cyclic peptides of protein M of SARS-CoV Urbani: 1.3
  Binding of serum 37 to linear peptides of protein M of SARS-CoV Urbani: 0.5
  Binding of serum 37 to looped/cyclic peptides of protein M of SARS-CoV Urbani: 0.6
  Binding of serum 62 to linear peptides of protein M of SARS-CoV Urbani: 0.7
  Binding of serum 62 to looped/cyclic peptides of protein M of SARS-CoV Urbani: 0.6
  Binding of serum London to linear peptides of protein M of SARS-CoV Urbani: 0.3
  Binding of serum London to looped/cyclic peptides of protein M of SARS-CoV Urbani: 0.7
  Binding of serum SARS-green to linear peptides of protein M of SARS-CoV Urbani: 0.2
  Binding of serum SARS-green to looped/cyclic peptides of protein M of SARS-CoV Urbani: 0.2
  Binding of serum SARS-yellow to linear peptides of protein M of SARS-CoV Urbani: 0.0
  Binding of serum SARS-yellow to looped/cyclic peptides of protein M of SARS-CoV Urbani: 0.8
[2]
  Binding of Control Serum Blood-Bank to Looped peptides of the protein M of SARS-CoV Urbani: 0.6
  Binding of Control serum Blood-bank to linear peptides of the protein M of SARS-CoV Urbani: 0.7
  Binding of Control serum LUMC to linear peptides of the protein M of SARS-CoV Urbani: 0.3
  Binding of Control serum LUMC to looped peptides of the protein M of SARS-CoV Urbani: 0.7
[3]
  Rabbit serum linear peptides: 0.3
  Rabbit serum looped peptides: 0.6

## FAFACADGTRHTYQL
[1]
  Binding of serum 1a to linear peptides of protein X4 of SARS-CoV Urbani: 0.7
  Binding of serum 1a to looped/cyclic peptides of protein X4 of SARS-CoV Urbani: 0.8
  Binding of serum 1b to linear peptides of protein X4 of SARS-CoV Urbani: 0.5
  Binding of serum 1b to looped/cyclic peptides of protein X4 of SARS-CoV Urbani: 0.5
  Binding of serum 2 to linear peptides of protein X4 of SARS-CoV Urbani: 0.3
  Binding of serum 2 to looped/cyclic peptides of protein X4 of SARS-CoV Urbani: 0.9
  Binding of serum 6 to linear peptides of protein X4 of SARS-CoV Urbani: 0.5
  Binding of serum 6 to looped/cyclic peptides of protein X4 of SARS-CoV Urbani: 0.5
  Binding of serum 37 to linear peptides of protein X4 of SARS-CoV Urbani: 0.6
  Binding of serum 37 to looped/cyclic peptides of protein X4 of SARS-CoV Urbani: 0.6
  Binding of serum 62 to linear peptides of protein X4 of SARS-CoV Urbani: 0.7
  Binding of serum 62 to looped/cyclic peptides of protein X4 of SARS-CoV Urbani: 0.5
  Binding of serum London to linear peptides of protein X4 of SARS-CoV Urbani: 0.6
  Binding of serum London to looped/cyclic peptides of protein X4 of SARS-CoV Urbani: 0.2
  Binding of serum SARS-green to linear peptides of protein X4 of SARS-CoV Urbani: 0.4
  Binding of serum SARS-green to looped/cyclic peptides of protein X4 of SARS-CoV Urbani: 0.5
  Binding of serum SARS-yellow to linear peptides of protein X4 of SARS-CoV Urbani: 0.2
  Binding of serum SARS-yellow to looped/cyclic peptides of protein X4 of SARS-CoV Urbani: 0.4
[2]
  Binding of Control Serum Blood-Bank to Looped peptides: 0.8
  Binding of Control serum Blood-bank to linear peptides: 0.7
  Binding of Control serum LUMC to linear peptides: 0.5
  Binding of Control serum LUMC to looped peptides: 0.7
[3]
  Rabbit serum linear peptides: 0.5
  Rabbit serum looped peptides: 0.1

## FAYSNRNRFLYIIKL
[1]
  Binding of serum 1a to linear peptides of protein M of SARS-CoV Urbani: 0.6
  Binding of serum 1b to linear peptides of protein M of SARS-CoV Urbani: 0.4
  Binding of serum 2 to linear peptides of protein M of SARS-CoV Urbani: 0.7
  Binding of serum 6 to linear peptides of protein M of SARS-CoV Urbani: 0.3
  Binding of serum 37 to linear peptides of protein M of SARS-CoV Urbani: 0.7
  Binding of serum 62 to linear peptides of protein M of SARS-CoV Urbani: 0.7
  Binding of serum London to linear peptides of protein M of SARS-CoV Urbani: 0.3
  Binding of serum SARS-green to linear peptides of protein M of SARS-CoV Urbani: 0.2
  Binding of serum SARS-yellow to linear peptides of protein M of SARS-CoV Urbani: 0.1
  Recognition of the peptide by sera of SARS-CoV infected individuals, and form (linear, looped/cyclic) in which it is recognized: recognized in looped/cyclic form
[2]
  Binding of Control Serum Blood-Bank to Looped peptides of the protein M of SARS-CoV Urbani: 0.4
  Binding of Control serum Blood-bank to linear peptides of the protein M of SARS-CoV Urbani: 0.6
  Binding of Control serum LUMC to linear peptides of the protein M of SARS-CoV Urbani: 0.4
  Binding of Control serum LUMC to looped peptides of the protein M of SARS-CoV Urbani: 0.6
[3]
  Rabbit serum linear peptides: 0.7
  Rabbit serum looped peptides: 0.6
